In PubChem BioAssay (NCI):
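All cell lines were grown in 96-well plates and treated with compound for 48 hours. The concentration for full growth arrest is given as TGI.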

Experiments:
Assay in all cases: NCI anticancer screen, dose series, 48 h
[1] = system: OVCAR-3 ovarian
[2] = system: CAKI-1 renal
[3] = system: PC-3 prostate
[4] = system: SW-620 colon
[5] = system: LOX IMVI melanoma
[6] = system: NCI-H226 lung
[7] = system: TK-10 renal
[8] = system: DU-145 prostate
[9] = system: HL-60(TB) leukemia
[10] = system: M14 melanoma
[11] = system: HCT-15 colon
[12] = system: HCC-2998 colon
[13] = system: SK-MEL-2 melanoma
[14] = system: SN12C renal
[15] = system: COLO 205 colon
[16] = system: U251 CNS
[17] = system: A498 renal
[18] = system: 786-0 renal
[19] = system: NCI-H522 lung
[20] = system: HS 578T breast
[21] = system: ACHN renal
[22] = system: IGROV1 ovarian
[23] = system: OVCAR-4 ovarian
[24] = system: RXF 393 renal
[25] = system: T-47D breast
[26] = system: OVCAR-5 ovarian
[27] = system: KM12 colon
[28] = system: SF-539 CNS
[29] = system: K-562 leukemia
[30] = system: SF-268 CNS
[31] = system: CCRF-CEM leukemia
[32] = system: UACC-62 melanoma
[33] = system: MCF7 breast
[34] = system: SF-295 CNS
[35] = system: MALME-3M melanoma
[36] = system: NCI/ADR-RES ovarian
[37] = system: A549 NSCLC
[38] = system: SR leukemia
[39] = system: MDA-MB-231 breast
[40] = system: SK-OV-3 ovarian
[41] = system: NCI-H23 lung
[42] = system: SK-MEL-28 melanoma
[43] = system: MDA-MB-435
[44] = system: HOP-62 NSCLC
[45] = system: MDA-N
[46] = system: HCT-116 colon
[47] = system: UACC-257 melanoma
[48] = system: SNB-19 CNS
[49] = system: MOLT-4 leukemia
[50] = system: OVCAR-8 ovarian
[51] = system: NCI-H460 lung
[52] = system: RPMI-8226 leukemia
[53] = system: BT-549 breast
[54] = system: SK-MEL-5 melanoma
[55] = system: HT29 colon
[56] = system: EKVX NSCLC
[57] = system: HOP-92 NSCLC
[58] = system: UO-31 renal

Q: Which results are given for `Clc1ccc(Cl)c(NNc2cc(Cl)ccc2Cl)c1`?
A: TGI [1]: 7.81 µM; TGI [2]: > 10 µM; TGI [3]: > 10 µM; TGI [4]: > 10 µM; TGI [5]: > 10 µM; TGI [6]: > 10 µM; TGI [7]: > 10 µM; TGI [8]: > 10 µM; TGI [9]: > 10 µM; TGI [10]: > 10 µM; TGI [11]: > 10 µM; TGI [12]: > 10 µM; TGI [13]: 8.6 µM; TGI [14]: > 10 µM; TGI [15]: > 10 µM; TGI [16]: > 10 µM; TGI [17]: > 10 µM; TGI [18]: > 10 µM; TGI [19]: > 10 µM; TGI [20]: > 10 µM; TGI [21]: 7.43 µM; TGI [22]: > 10 µM; TGI [23]: > 10 µM; TGI [24]: > 10 µM; TGI [25]: > 10 µM; TGI [26]: > 10 µM; TGI [27]: > 10 µM; TGI [28]: > 10 µM; TGI [29]: > 10 µM; TGI [30]: > 10 µM; TGI [31]: > 10 µM; TGI [32]: > 10 µM; TGI [33]: > 10 µM; TGI [34]: > 10 µM; TGI [35]: 9.7 µM; TGI [36]: 9 µM; TGI [37]: > 10 µM; TGI [38]: > 10 µM; TGI [39]: > 10 µM; TGI [40]: > 10 µM; TGI [41]: 7.18 µM; TGI [42]: > 10 µM; TGI [43]: > 10 µM; TGI [44]: > 10 µM; TGI [45]: > 10 µM; TGI [46]: > 10 µM; TGI [47]: > 10 µM; TGI [48]: > 10 µM; TGI [49]: > 10 µM; TGI [50]: > 10 µM; TGI [51]: > 10 µM; TGI [52]: > 10 µM; TGI [53]: > 10 µM; TGI [54]: 6.35 µM; TGI [55]: > 10 µM; TGI [56]: > 10 µM

Q: `COc1ccc(-n2sc3ncc(C)cc3c2=O)cc1` was tested. Which TGI [1] did it give?
A: 32.4 µM

Q: What about the TGI [57] of the same compound?
A: 42.1 µM

Q: What about the TGI [3] of the same compound?
A: 29 µM

Q: And the TGI [4]?
A: 89.6 µM

Q: What about the TGI [6] of the same compound?
A: 84.6 µM

Q: And the TGI [7]?
A: 33.2 µM

Q: What about the TGI [8] of the same compound?
A: 44 µM

Q: And the TGI [10]?
A: 32.7 µM

Q: And the TGI [11]?
A: 38.7 µM

Q: What about the TGI [12] of the same compound?
A: > 100 µM

Q: And the TGI [13]?
A: 52.7 µM

Q: What about the TGI [14] of the same compound?
A: 35.4 µM

Q: And the TGI [15]?
A: 29.5 µM

Q: And the TGI [16]?
A: 52.6 µM

Q: And the TGI [18]?
A: 31 µM

Q: And the TGI [19]?
A: 45.8 µM

Q: And the TGI [20]?
A: 83.7 µM

Q: And the TGI [21]?
A: 32.3 µM

Q: What about the TGI [22] of the same compound?
A: > 100 µM

Q: What about the TGI [23] of the same compound?
A: > 100 µM

Q: What about the TGI [25] of the same compound?
A: 39.4 µM

Q: What about the TGI [26] of the same compound?
A: 34.7 µM

Q: What about the TGI [27] of the same compound?
A: 29.6 µM

Q: And the TGI [29]?
A: > 100 µM

Q: And the TGI [30]?
A: 40.6 µM

Q: And the TGI [58]?
A: 31.4 µM

Q: What about the TGI [31] of the same compound?
A: 37.5 µM

Q: And the TGI [32]?
A: 34.9 µM

Q: What about the TGI [33] of the same compound?
A: 44.2 µM

Q: And the TGI [34]?
A: > 100 µM

Q: And the TGI [35]?
A: 38.5 µM

Q: And the TGI [36]?
A: 64.4 µM

Q: What about the TGI [37] of the same compound?
A: 44.7 µM

Q: And the TGI [38]?
A: > 100 µM

Q: What about the TGI [39] of the same compound?
A: 30.7 µM

Q: And the TGI [40]?
A: > 100 µM

Q: And the TGI [41]?
A: 57.7 µM

Q: And the TGI [42]?
A: 73 µM

Q: What about the TGI [43] of the same compound?
A: 40.5 µM

Q: What about the TGI [44] of the same compound?
A: 45.9 µM

Q: And the TGI [45]?
A: 31.8 µM

Q: And the TGI [46]?
A: 34.5 µM

Q: And the TGI [48]?
A: > 100 µM

Q: What about the TGI [49] of the same compound?
A: > 100 µM

Q: What about the TGI [50] of the same compound?
A: 35.2 µM

Q: What about the TGI [51] of the same compound?
A: > 100 µM

Q: And the TGI [52]?
A: 67.2 µM

Q: What about the TGI [53] of the same compound?
A: 35.6 µM

Q: What about the TGI [54] of the same compound?
A: 26 µM

Q: What about the TGI [55] of the same compound?
A: 31.9 µM

Q: What about the TGI [56] of the same compound?
A: 33.6 µM

Q: What does the source list for `O=C(CC(=O)Nc1ccc(C(=O)O)cc1)Nc1ccc(C(=O)O)cc1`?
A: TGI [1]: > 100 µM; TGI [57]: > 100 µM; TGI [2]: > 100 µM; TGI [3]: > 100 µM; TGI [4]: > 100 µM; TGI [5]: > 100 µM; TGI [6]: > 100 µM; TGI [7]: > 100 µM; TGI [8]: > 100 µM; TGI [9]: > 100 µM; TGI [10]: > 100 µM; TGI [12]: > 100 µM; TGI [13]: 40 µM; TGI [14]: > 100 µM; TGI [15]: > 100 µM; TGI [16]: > 100 µM; TGI [17]: > 100 µM; TGI [18]: > 100 µM; TGI [19]: > 100 µM; TGI [20]: > 100 µM; TGI [21]: > 100 µM; TGI [22]: > 100 µM; TGI [23]: > 100 µM; TGI [25]: > 100 µM; TGI [27]: > 100 µM; TGI [28]: > 100 µM; TGI [29]: > 100 µM; TGI [30]: > 100 µM; TGI [58]: > 100 µM; TGI [31]: > 100 µM; TGI [32]: > 100 µM; TGI [33]: > 100 µM; TGI [34]: > 100 µM; TGI [35]: > 100 µM; TGI [36]: > 100 µM; TGI [37]: > 100 µM; TGI [38]: > 100 µM; TGI [39]: > 100 µM; TGI [40]: > 100 µM; TGI [41]: > 100 µM; TGI [42]: > 100 µM; TGI [43]: > 100 µM; TGI [45]: > 100 µM; TGI [46]: > 100 µM; TGI [47]: > 100 µM; TGI [48]: > 100 µM; TGI [49]: > 100 µM; TGI [50]: > 100 µM; TGI [51]: > 100 µM; TGI [52]: > 100 µM; TGI [53]: > 100 µM; TGI [54]: > 100 µM; TGI [55]: > 100 µM; TGI [56]: > 100 µM
